The text below walks through data of PubChem BioAssay AID248 (DTP/NCI, 2004).

Values joined by “and” are separate entries in the source; they are usually repeats but may differ in a detail not shown here. Identical values can stand only once. Inconclusive results and toxic doses are left out.

The experiment relates to L1210 leukemia ip in BDF1 mice, survival T/C. The experiment is described as follows: NCI In Vivo Anticancer Drug Screen. Data for tumor model L1210 Leukemia (intraperitoneal) in B6D2F1 (BDF1) mice. The note with it: endpoint: mean survival time, higher = longer survival. The procedure, abridged:
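Tumor was transplanted into mice, which were then dosed with test compound or vehicle alone. Survival was recorded for each group, and the treated figure was expressed relative to the control figure.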

[1] abbreviates: dose: 100.0 mg/kg/injection, schedule: Q01DX009 (ip), vehicle: Klucel (hydroxypropylcellulose) (HPC).
[2] abbreviates: dose: 100.0 mg/kg/injection, schedule: Q04DX003 (ip), vehicle: Klucel (hydroxypropylcellulose) (HPC).
[3] abbreviates: dose: 200.0 mg/kg/injection, schedule: Q01DX009 (ip), vehicle: Klucel (hydroxypropylcellulose) (HPC).
[4] abbreviates: dose: 200.0 mg/kg/injection, schedule: Q04DX003 (ip), vehicle: Klucel (hydroxypropylcellulose) (HPC).
[5] abbreviates: dose: 400.0 mg/kg/injection, schedule: Q04DX003 (ip), vehicle: Klucel (hydroxypropylcellulose) (HPC).
Where [6] appears, read: dose: 5.0 mg/kg/injection, schedule: Q01DX001 (ip), vehicle: saline.
[7] abbreviates: dose: 10.0 mg/kg/injection, schedule: Q01DX001 (ip), vehicle: saline.
[8] abbreviates: dose: 20.0 mg/kg/injection, schedule: Q01DX001 (ip), vehicle: saline.
The mark [9] stands for this setting: dose: 100.0 mg/kg/injection, schedule: Q01DX009 (ip), vehicle: saline with Tween-80.
Where [10] appears, read: dose: 200.0 mg/kg/injection, schedule: Q01DX009 (ip), vehicle: saline with Tween-80.
[11] abbreviates: dose: 400.0 mg/kg/injection, schedule: Q01DX009 (ip), vehicle: saline with Tween-80.
Setting [12] is: dose: 100.0 mg/kg/injection, schedule: Q04DX003 (ip), vehicle: saline with Tween-80.
The mark [13] stands for this setting: dose: 200.0 mg/kg/injection, schedule: Q04DX003 (ip), vehicle: saline with Tween-80.
The mark [14] stands for this setting: dose: 400.0 mg/kg/injection, schedule: Q04DX003 (ip), vehicle: saline with Tween-80.

Turning to `CCCCN(C)N=Nc1ccc(Cl)cc1C(N)=O`, the T/C is 102 % of control (dose: 100.0 mg/kg/injection, schedule: Q01DX001 (ip), vehicle: Klucel (hydroxypropylcellulose) (HPC)); 110 % of control under setting [1]; 109 % of control under setting [2]; 107 % of control (dose: 200.0 mg/kg/injection, schedule: Q01DX001 (ip), vehicle: Klucel (hydroxypropylcellulose) (HPC)); 105 % of control under setting [3]; 96 % of control under setting [4]. In addition, the T/C is 98 % of control (dose: 400.0 mg/kg/injection, schedule: Q01DX001 (ip), vehicle: Klucel (hydroxypropylcellulose) (HPC)); 105 % of control (dose: 400.0 mg/kg/injection, schedule: Q01DX009 (ip), vehicle: Klucel (hydroxypropylcellulose) (HPC)); 93 % of control under setting [5].

`O=S(=O)(O)c1cc(Cl)cc(Cl)c1O`: the T/C reads like this: (dose: 100.0 mg/kg/injection, schedule: Q01DX009 (ip), vehicle: saline) 96 % of control; (dose: 100.0 mg/kg/injection, schedule: Q04DX003 (ip), vehicle: saline) 113 % of control; (dose: 200.0 mg/kg/injection, schedule: Q01DX009 (ip), vehicle: saline) 100 % of control; (dose: 200.0 mg/kg/injection, schedule: Q04DX003 (ip), vehicle: saline) 105 % of control; (dose: 400.0 mg/kg/injection, schedule: Q01DX009 (ip), vehicle: saline) 105 % of control; (dose: 400.0 mg/kg/injection, schedule: Q04DX003 (ip), vehicle: saline) 107 % of control.

`O=C(O)c1cc(I)cc(I)c1I`: the T/C reads like this: (dose: 100.0 mg/kg/injection, schedule: Q04DX002 (ip), vehicle: Klucel (hydroxypropylcellulose) (HPC)) 105 % of control; (dose: 200.0 mg/kg/injection, schedule: Q04DX002 (ip), vehicle: Klucel (hydroxypropylcellulose) (HPC)) 88 % of control; (dose: 400.0 mg/kg/injection, schedule: Q04DX002 (ip), vehicle: Klucel (hydroxypropylcellulose) (HPC)) 102 % of control.

On to `Cc1ccc2nc(C)cc(NC(=O)c3ccccc3)c2c1`, for which the T/C under setting [6] is 110 % of control; the T/C under setting [7] was 95 % of control; the T/C under setting [8] was 100 % of control; the T/C (dose: 40.0 mg/kg/injection, schedule: Q01DX001 (ip), vehicle: saline) was 105 % of control; the T/C (dose: 80.0 mg/kg/injection, schedule: Q01DX001 (ip), vehicle: saline) is 106 % of control.

With `CO[C@@]12[C@H](COC(N)=O)C3=C(C(=O)C(C)=C(NCCO)C3=O)N1C[C@@H]1N[C@@H]12`, the T/C reads like this: (dose: 2.9 mg/kg/injection, schedule: Q01DX001 (ip), vehicle: acetone) 113 % of control; (dose: 4.3 mg/kg/injection, schedule: Q01DX001 (ip), vehicle: acetone) 117 % of control; (dose: 6.6 mg/kg/injection, schedule: Q01DX001 (ip), vehicle: saline) 113 % of control; (dose: 7.5 mg/kg/injection, schedule: Q01DX009 (ip), vehicle: saline) 91 % of control; (dose: 9.9 mg/kg/injection, schedule: Q01DX001 (ip), vehicle: saline) 111 % of control; (dose: 22.0 mg/kg/injection, schedule: Q01DX001 (ip), vehicle: saline) 113 % of control. Besides, the T/C (dose: 33.0 mg/kg/injection, schedule: Q01DX001 (ip), vehicle: acetone) is 159 % of control.

Consider `COc1ccc2c3c(ccc2c1)C1=C(C(=O)O)CC(=O)C1(C)CC3` (centres undefined), for which the T/C by setting is: (dose: 100.0 mg/kg/injection, schedule: Q01DX009 (sc), vehicle: steriod suspending solution) 114 % of control; (dose: 100.0 mg/kg/injection, schedule: Q04DX003 (sc), vehicle: steriod suspending solution) 117 % of control; (dose: 200.0 mg/kg/injection, schedule: Q01DX009 (sc), vehicle: steriod suspending solution) 101 % of control; (dose: 200.0 mg/kg/injection, schedule: Q04DX003 (sc), vehicle: steriod suspending solution) 97 % of control; (dose: 400.0 mg/kg/injection, schedule: Q01DX009 (sc), vehicle: steriod suspending solution) 95 % of control; (dose: 400.0 mg/kg/injection, schedule: Q04DX003 (sc), vehicle: steriod suspending solution) 101 % of control.

As to `CCCC(C)C(=O)Nc1cccc(OC(=O)NC(C)(C)C)c1` (centres undefined), the T/C by setting is: under setting [9], 92 % of control; under setting [10], 89 % of control; under setting [11], 87 % of control.

Take `Cc1c2cnccc2c(C)c2c1c1ccccc1n2CCNCc1ccccc1`: the T/C runs as follows: (dose: 50.0 mg/kg/injection, schedule: Q04DX003 (ip), vehicle: saline with Tween-80) 87 % of control; under setting [12], 94 % of control; under setting [13], 103 % of control.

As for `O=C1NC(=S)N/C1=C\c1ccco1`, the T/C was 100 % of control (dose: 25.0 mg/kg/injection, schedule: Q01DX001 (ip), vehicle: saline); 100 % of control (dose: 50.0 mg/kg/injection, schedule: Q01DX001 (ip), vehicle: saline); 98 % of control and 100 % of control (dose: 100.0 mg/kg/injection, schedule: Q01DX001 (ip), vehicle: saline).

Regarding `CC[N+](C)(CC)/N=C(\C)c1ccccc1`, the T/C under setting [12] is 105 % of control.

Regarding `COc1cc(/C=C/C(C)=O)ccc1O`, the T/C is 101 % of control (dose: 50.0 mg/kg/injection, schedule: Q01DX009 (ip), vehicle: saline with Tween-80); 101 % of control under setting [9]; 93 % of control under setting [12]; 98 % of control under setting [10]; 98 % of control under setting [13]; 98 % of control under setting [14].

Consider `CC(=O)NC(CO)C(O)C(O)C(O)CO` (centres undefined), for which the T/C is 101 % of control and 89 % of control (dose: 100.0 mg/kg/injection, schedule: Q04DX002 (ip), vehicle: saline); 93 % of control and 104 % of control (dose: 200.0 mg/kg/injection, schedule: Q04DX002 (ip), vehicle: saline); 93 % of control (dose: 400.0 mg/kg/injection, schedule: Q04DX002 (ip), vehicle: saline); 93 % of control (dose: 800.0 mg/kg/injection, schedule: Q04DX002 (ip), vehicle: saline).

Turning to `O=C1NC(=O)C(O)(C2(O)C(=O)NC(=O)NC2=O)C(=O)N1`, the T/C is, setting by setting: (dose: 75.0 mg/kg/injection, schedule: Q01DX001 (ip), vehicle: carboxymethylcellulose (CMC)) 101 % of control; under setting [9], 106 % of control; (dose: 150.0 mg/kg/injection, schedule: Q01DX001 (ip), vehicle: carboxymethylcellulose (CMC)) 102 % of control; under setting [10], 92 % of control; under setting [11], 88 % of control.

Take `CCNc1nc(C)c2nc(C(=O)OCC)c(=O)[nH]c2n1`: the T/C runs as follows: (dose: 50.0 mg/kg/injection, schedule: Q01DX009 (ip), vehicle: Klucel (hydroxypropylcellulose) (HPC)) 95 % of control; under setting [1], 95 % of control; under setting [3], 98 % of control.

As for `CC1(C)N=C(N)N=C(N)N1c1cccc(CCCCc2ccc(Cl)cc2Cl)c1`, the T/C was 94 % of control under setting [6]; 98 % of control (dose: 6.25 mg/kg/injection, schedule: Q04DX003 (ip), vehicle: saline with Tween-80); 100 % of control under setting [7]; 93 % of control (dose: 12.5 mg/kg/injection, schedule: Q04DX003 (ip), vehicle: saline with Tween-80); 100 % of control under setting [8]; 101 % of control (dose: 25.0 mg/kg/injection, schedule: Q04DX003 (ip), vehicle: Klucel (hydroxypropylcellulose) (HPC)). Besides, the T/C by setting is: (dose: 25.0 mg/kg/injection, schedule: Q04DX003 (ip), vehicle: saline with Tween-80) 98 % of control; (dose: 50.0 mg/kg/injection, schedule: Q04DX003 (ip), vehicle: Klucel (hydroxypropylcellulose) (HPC)) 100 % of control; under setting [2], 93 % of control.

As for `CCN(C(=O)Nc1cccc(C(F)(F)F)c1)c1ccccc1C(F)(F)F`, the T/C by setting is: under setting [2], 98 % of control; under setting [4], 91 % of control; under setting [5], 93 % of control.

As for `CCOC(=O)C(C(=O)OCC)c1cc(NC(=O)c2ccccc2)ccc1NC(=O)c1ccccc1`, the T/C was 98 % of control under setting [12], 95 % of control under setting [13] and 95 % of control under setting [14].
